# Data published in patent publication US20240109877A1, “PYRIMIDINES FOR DEGRADING BRUTON'S TYROSINE KINASE” (AbbVie Inc., priority 2022, published 2024).
# Assays:
# [1] = target: BTK in mouse bone marrow (Mus musculus (Mouse), UniProt P35991); assay: Mouse Bone Marrow Assay (MSD ELISA of BTK degradation in mouse bone marrow); format: in vivo; details: female C57BL/6J mice, single dose of Dose A, bone marrow collected after 24 hours, % remaining BTK in vehicle versus treated samples
# Experimental: Female C57BL/6J mice (Jackson Laboratories) were used for this study. Compounds or vehicle/control were prepped with EtOH; PEG-400; Phosal 53 MCT (10:30:60, v/v). Four mice were tested per compound or vehicle/control. On Day 1, mice were administered a single dose of Dose A. On Day 2 (after 24 hours), tissue (bone marrow) was collected from one hind leg per mouse.
# An MSD (Meso Scale Discovery) ELISA (enzyme-linked immunosorbent assay) based assay was used to determine BTK degradation in mouse bone marrow. The following materials and equipment were used: 10% NP40 solution (nonionic polyoxyethylene surfactant, ThermoFisher, cat no. 28324); protease inhibitor mini tablet (Roche, cat no. 05 892 970 001); PhosphoSTOP™ tablet (Roche, cat no. 04 906 837 001); Pierce™ BCA Protein Assay Kit (Thermofisher, Cat No. 23225); Precellys® 2 mL lysing tube with 2.8 mm beads (VWR, cat no. 10032-756); Bertin Precellys® 24/Cryolys ® cooling system; 96-well MSD streptavidin pre-coated plates (MSD, cat no. L15SA-1); MSD Blocker A (MSD, cat no. R93BA-4); capture antibody, biotinylated BTK mAb (BD Biosciences, cat no. 624008; custom order); primary detection antibody, BTK RpAb (rabbit polyclonal antibody, CST, cat no. 8547S, D3H5 clone); secondary detection antibody, anti-Rabbit-Sulfo-Tag (MSD, cat no. R32AB-1); read Buffer, 4× (MSD, cat no. R92TC-1); recombinant BTK protein (Thermofisher, cat no. PR5442A); MSD Tris Wash Buffer (10×) (MSD, cat no. R61TX-1); PBS (phosphate-buffered saline); deionized water (diH2O); Lysis Buffer [0.2% NP40 in PBS+Protease Inhibitor tablet (1 tablet/10 mL)+PhosphoSTOP tablet (1 tablet/10 mL)]; 3% MSD Blocker A [MSD Blocker A+450 mL diH2O+50 mL]; and 10× MSD Tris Wash Buffer.
# Lysis buffer [(PBS+0.2% NP40+PI (protease inhibitor)+PhosphoSTOP)]was prepared and put on ice until it was fully cold. Ice cold lysis buffer […] was added to each Precellys® tube containing beads and bone marrow sample. Sample tubes were transferred into Precellys® machine and homogenized using 5000 rpm -2×20 seconds. The sample lysates were centrifuged at 14,000 rpm for 20 minutes at 4° C. after homogenizing.
# The protein concentration was determined using Pierce™ BCA Protein Assay Kit following manufacturer's recommended protocol. The protein normalized working solution was prepared, using 30 μg protein per sample lysate for assay.
# A 300 ng/ml working stock solution of recombinant BTK protein in lysis buffer was prepared, and the sample was serially diluted at 3-fold dilution (10-point assay, highest concentration was 300 ng/mL and lowest concentration was 0.015 ng/mL)
# MSD plate coating: Coating antibody (biotinylated-BTK mAb) stock solution was prepared at 1 μg/mL in PBS buffer. 50 μL/well capture antibody (Biotinylated BTK mAb) solution was added, and the plates were shaken gently at ambient temperature for two hours. The plates were washed 3 times with 1× MSD Tris Wash Buffer in a plate washer (300 μL/well), and the plates were blocked with 3% MSD Blocker A (150 μL/well). The plates were incubated for an additional 1-2 hours at ambient temperature with gentle shaking. The plates were washed 3 times with 1× MSD wash buffer using plate washer. Bone marrow lysates (30 μg) at a final volume of 50 μL/well were added into the plates. The serially diluted standard samples were added to the same plates at a final volume of 50 μL/well. The plates were incubated overnight at 4° C. with gentle shaking.
# The plates were washed three times with 1× MSD wash buffer (prepared from 10× concentration buffer) using plate washer. Primary detection antibody at 50 μL/well was added (BTK RpAb; 1:1000 dilution in 1% MSD Blocker A). The plates were incubated for two hours at ambient temperature with gentle shaking. The plates were washed three times with 1× MSD wash buffer using plate washer. Anti-Rabbit-SULFO-TAG secondary antibodies (50 μl/well) were added, 1:500 diluted in 1% MSD Blocker A, and the plates were incubated for one to two hours at ambient temperature. […]
# [2] = target: BTK protein in human whole blood (Homo sapiens (Human), UniProt Q06187); assay: Btk protein in human whole blood MSD ELISA based assay (Btk degradation); format: cell-based; details: human whole blood from healthy donors, 6 hours at 37° C., half maximal degradation concentration; read-out: hWB BTK DC50
# In short: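 Fresh healthy-donor human whole blood incubated 6 h at 37 °C with 8-point 1:4 dilutions from 3 μM (final 0.2% DMSO), in duplicate. Remaining BTK in lysates measured by MSD sandwich ELISA. DC50 by non-linear regression; Dmax as maximal degradation versus DMSO.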
# Chain of BTK protein in human whole blood (Q06187 whole entry): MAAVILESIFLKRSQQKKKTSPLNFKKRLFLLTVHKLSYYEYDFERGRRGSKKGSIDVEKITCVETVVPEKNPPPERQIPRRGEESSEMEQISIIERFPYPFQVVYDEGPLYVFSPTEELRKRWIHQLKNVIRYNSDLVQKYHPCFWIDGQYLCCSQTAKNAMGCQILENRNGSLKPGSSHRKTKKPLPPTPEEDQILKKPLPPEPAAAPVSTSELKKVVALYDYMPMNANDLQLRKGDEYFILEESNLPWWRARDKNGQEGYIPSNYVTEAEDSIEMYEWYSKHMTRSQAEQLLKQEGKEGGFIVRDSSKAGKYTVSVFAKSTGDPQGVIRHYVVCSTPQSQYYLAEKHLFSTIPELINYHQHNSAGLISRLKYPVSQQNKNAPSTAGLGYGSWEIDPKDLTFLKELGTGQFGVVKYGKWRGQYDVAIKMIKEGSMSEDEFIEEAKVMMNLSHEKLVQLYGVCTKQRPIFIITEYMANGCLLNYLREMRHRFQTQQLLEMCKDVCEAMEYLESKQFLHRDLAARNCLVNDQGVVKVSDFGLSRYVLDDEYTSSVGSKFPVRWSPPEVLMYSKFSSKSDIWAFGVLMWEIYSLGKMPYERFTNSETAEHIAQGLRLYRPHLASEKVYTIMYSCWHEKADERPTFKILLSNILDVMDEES
# Chain of BTK in mouse bone marrow (P35991 whole entry): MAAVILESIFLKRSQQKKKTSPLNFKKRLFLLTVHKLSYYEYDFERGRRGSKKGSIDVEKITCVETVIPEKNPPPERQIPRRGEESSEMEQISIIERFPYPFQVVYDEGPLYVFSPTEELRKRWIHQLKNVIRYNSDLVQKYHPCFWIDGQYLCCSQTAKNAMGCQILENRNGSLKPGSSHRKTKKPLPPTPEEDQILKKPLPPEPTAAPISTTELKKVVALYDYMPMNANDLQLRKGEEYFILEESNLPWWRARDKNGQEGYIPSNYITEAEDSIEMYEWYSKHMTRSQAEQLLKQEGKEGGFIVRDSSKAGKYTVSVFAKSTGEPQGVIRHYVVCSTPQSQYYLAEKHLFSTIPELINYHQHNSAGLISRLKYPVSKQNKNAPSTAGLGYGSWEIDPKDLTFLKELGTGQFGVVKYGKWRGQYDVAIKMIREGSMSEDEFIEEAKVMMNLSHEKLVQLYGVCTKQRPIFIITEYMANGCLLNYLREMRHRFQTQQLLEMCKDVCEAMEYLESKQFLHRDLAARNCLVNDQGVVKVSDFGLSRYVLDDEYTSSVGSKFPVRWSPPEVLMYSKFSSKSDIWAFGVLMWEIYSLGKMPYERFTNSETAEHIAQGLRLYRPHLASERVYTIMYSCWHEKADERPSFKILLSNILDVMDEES
"Mouse Bone Marrow (%), % remaining BTK [1] [%]",DC50 [2] [nM],Compound
26,17.3,"Cc1cc(-c2cc(Nc3ccc(N4CCN(CCc5ccc(N6CCC(=O)NC6=O)cc5)C[C@@H]4C(C)C)cn3)ncn2)ccc1[C@@H](C)NC(=O)c1nc(C(C)(C)C)no1 [Example 13, 3-tert-butyl-N-[(1R)-1-{4-[6-({5-[(2S)-4-{2-[4-(2,4-dioxo-1,3-diazinan-1-yl)phenyl]ethyl}-2-(propan-2-yl)piperazin-1-yl]pyridin-2-yl}amino)pyrimidin-4-yl]-2-methylphenyl}ethyl]-1,2,4-oxadiazole-5-carboxamide]"
16,7.91,"C[C@@H](NC(=O)c1nc(C(C)(C)C)no1)c1ccc(-c2cc(Nc3ccc(N4CCN(CCc5ccc(N6CCC(=O)NC6=O)cc5)C[C@@H]4C)cn3)ncn2)cc1Cl [Example 14, 3-tert-butyl-N-[(1R)-1-{2-chloro-4-[6-({5-[(2S)-4-{2-[4-(2,4-dioxo-1,3-diazinan-1-yl)phenyl]ethyl}-2-methylpiperazin-1-yl]pyridin-2-yl}amino)pyrimidin-4-yl]phenyl}ethyl]-1,2,4-oxadiazole-5-carboxamide]"
25,15.6,Cc1cc(-c2cc(Nc3ccc(N4CCN(CCc5ccc(N6CCC(=O)NC6=O)cc5)C[C@@H]4C)cc3)ncn2)ccc1[C@@H](C)NC(=O)c1nc(C(C)(C)C)no1 [Example 18]
51,3,Cc1cc(-c2cc(Nc3ccc(CCN4CCN(c5ccc(N6CCC(=O)NC6=O)cc5)CC4)cn3)ncn2)ccc1[C@@H](C)NC(=O)c1nc(C(C)(C)C)no1 [Example 19]
